Results as given in the supplement of paper PMC5412046.
Structures can show the parent of a compound that is named as a salt.

What was measured:
SB.mhdgc-1 [1] = experiment: viability at highest tested concentration (MAXR) relative to DMSO; higher = less cytotoxic; settings: SB.mhdgc-1 (hereditary c.1380delA CDH1 gastric cancer)
Method in brief: (§1)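 Using a pintool, 23 nL of compound in DMSO was transferred at 11 threefold-diluted concentrations onto patient-derived gastric cancer cells, hereditary or sporadic, plated at 500 cells in 5 μL medium per 1536 well. CellTiter-Glo luminescence was read after 48 h. Each value is viability normalised to DMSO, either at the highest concentration or as trapezoidal area under the curve.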

SB.msgc-1 [2] = experiment: as above; settings: SB.msgc-1 (sporadic gastric cancer)
Method in brief: as §1

SB.mhdgc-1 [3] = experiment: area under the dose-response curve of % viability (trapezoidal, 11 doses) (% viability x log10 concentration); higher = less cytotoxic; settings: SB.mhdgc-1 (hereditary c.1380delA CDH1 gastric cancer)
Method in brief: as §1

SB.msgc-1 [4] = experiment: as above; settings: SB.msgc-1 (sporadic gastric cancer)
Method in brief: as §1

Row | SMILES | viability (SB.mhdgc-1 [1]) | viability (SB.msgc-1 [2]) | area under the dose-response curve (SB.mhdgc-1 [3]) | area under the dose-response curve (SB.msgc-1 [4])
1 | OC(COC1=C2C(=O)\C=C(/OC2=CC=C1)C([O-])=O)COC3=C4C(=O)\C=C(/OC4=CC=C3)C([O-])=O [Sodium cromoglycate] (top concentration 46.0829 µM) | 73.9% | 108% | 415 | 468
2 | CC(C)OC(=O)[C@H](C)N[P@](=O)(OC[C@H]1O[C@@H](N2\C=C/C(=O)NC2=O)[C@](C)(F)[C@@H]1O)OC3=CC=CC=C3 [Sofosbuvir] (top concentration 46.0829 µM) | 58.6% | 103% | 431 | 509
3 | CC(C)=CCC/C(C)=C/CC/C(C)=C/CC/C(C)=C/CC/C(C)=C/CC/C(C)=C/CC/C(C)=C/CC/C(C)=C/CC/C(C)=C/CO [Solanesol] (top concentration 46.0829 µM) | 133% | 119% | 611 | 564
4 | O=C1\C=C/C[C@@H]2[C@H]3CCCN4CCC[C@@H](CN12)[C@@H]34 [Sophocarpine] (top concentration 46.0829 µM) | 87% | 31.1% | 598 | 395
5 | CNC(=O)c1cc(Oc2ccc(NC(=O)Nc3ccc(Cl)c(C(F)(F)F)c3)cc2)ccn1 [Sorafenib] (top concentration 46.0829 µM) | 9.42% | 26.6% | 494 | 444
6 | CC(C)NCC(O)c1ccc(NS(C)(=O)=O)cc1 (stereo unspecified) [Sotalol] (top concentration 46.0829 µM) | 35.2% | 40.9% | 485 | 512
7 | C[C@H]1CN(C[C@@H](C)N1)C2=C(F)C3=C(C(=C2F)N)C(=O)\C(=C/N3C4CC4)C(O)=O [Sparfloxacin] (top concentration 23.0415 µM) | 119% | 97.3% | 556 | 546
8 | Fc1ccc(CNc2ncnc3ccc(F)cc23)cc1 [Spautin-1] (top concentration 46.0829 µM) | 67.9% | 61.4% | 505 | 470
9 | CN[C@@H]1[C@H](O)[C@H](NC)[C@H]2O[C@@]3(O)C(=O)C[C@@H](C)O[C@H]3O[C@@H]2[C@H]1O [Spectinomycin hydrochloride] (top concentration 46.0829 µM) | 1.14% | 6.98% | 315 | 328
10 | NCCCCNCCCN [Spermidine] (top concentration 46.0829 µM) | 47.6% | 12.4% | 493 | 538
11 | C[C@]12Cc3cn[nH]c3C[C@@H]1CC[C@@H]1[C@@H]2CC[C@@]2(C)[C@H]1CC[C@]2(C)O [Stanozolol] (top concentration 46.0829 µM) | 44.9% | 55.5% | 444 | 510
12 | CO[C@@H]1C(N(C)C(=O)c2ccccc2)C[C@H]2O[C@]1(C)n1c3ccccc3c3c4c(c5c6ccccc6n2c5c31)C(=O)NC4=O (stereo partly specified) [Stauprimide] (top concentration 46.0829 µM) | 41.7% | 34.8% | 386 | 301
13 | Cc1cn([C@H]2C=C[C@@H](CO)O2)c(=O)[nH]c1=O [Stavudine] (top concentration 92.1659 µM) | 142% | 55.4% | 559 | 498
14 | CN1CCN(CCCN2c3ccccc3Sc3ccc(C(F)(F)F)cc32)CC1 [Stelazine  trifluoperzine] (top concentration 46.0829 µM) | 4.15% | 7.54% | 404 | 490
15 | CC(C)n1cnc2c(NCCc3ccc(O)cc3)nc(-c3csc4ccccc34)nc21 [StemRegenin 1] (top concentration 46.0829 µM) | -0.348% | 2.16% | 298 | 413
16 | CC[C@H](/C=C/[C@@H](C)[C@H]1CC[C@H]2[C@@H]3CC=C4C[C@@H](O)CC[C@]4(C)[C@H]3CC[C@]12C)C(C)C [Stigmasterol] (top concentration 23.0415 µM) | 59.3% | 32.2% | 449 | 443
17 | CN[C@H]1[C@H](O[C@@H]2[C@H](O[C@@H]3[C@@H](O)[C@@H](O)[C@@H](NC(=N)N)[C@@H](O)[C@H]3NC(=N)N)O[C@H](C)[C@@]2(O)C=O)O[C@@H](CO)[C@@H](O)[C@H]1O [Streptomycin sulfate] (top concentration 13.5607 µM) | 137% | 126% | 617 | 611
18 | CN(N=O)C(=O)N[C@H]1C(O)OC(CO)[C@@H](O)[C@@H]1O (stereo partly specified) [Streptozocin] (top concentration 46.0829 µM) | 72.5% | 88% | 352 | 440
19 | CC1(C)[C@H](C(=O)O)N2C(=O)C[C@H]2[S+]1(=O)[O-] [Sulbactam] (top concentration 46.0829 µM) | 80.7% | 91.3% | 535 | 562
20 | COc1ncnc(N[S+](=O)([O-])c2ccc(N)cc2)c1OC [Sulfadoxine] (top concentration 46.0829 µM) | 115% | 130% | 561 | 609
21 | Cc1noc(N[S+](=O)([O-])c2ccc(N)cc2)c1C [Sulfafurazole] (top concentration 46.0829 µM) | 126% | 109% | 561 | 516
22 | COc1cnc(N[S+](=O)([O-])c2ccc(N)cc2)nc1 [Sulfameter] (top concentration 46.0829 µM) | 65.7% | 43.3% | 509 | 512

Row | SMILES | viability (SB.mhdgc-1 [1]) | viability (SB.msgc-1 [2]) | area under the dose-response curve (SB.mhdgc-1 [3]) | area under the dose-response curve (SB.msgc-1 [4])
23 | Cc1nnc(N[S+](=O)([O-])c2ccc(N)cc2)s1 [Sulfamethizole] (top concentration 46.0829 µM) | 38.9% | 3.84% | 394 | 489
24 | Nc1ccc([S+](=O)([O-])Nc2ccnn2-c2ccccc2)cc1 [Sulfaphenazole] (top concentration 46.0829 µM) | 94.5% | 98.2% | 501 | 478
25 | Nc1ccc([S+](=O)([O-])Nc2ccccn2)cc1 [Sulfapyridine] (top concentration 46.0829 µM) | 98.6% | 123% | 546 | 517
26 | O=C(O)c1cc(/N=N/c2ccc([S+](=O)([O-])Nc3ccccn3)cc2)ccc1O [Sulfasalazine] (top concentration 46.0829 µM) | 82.3% | 105% | 498 | 510
27 | CC1=C(CC(=O)O)c2cc(F)ccc2/C1=C\c1ccc([S+](C)[O-])cc1 (stereo unspecified) [Sulindac] (top concentration 46.0829 µM) | 35.4% | 46.5% | 472 | 452
28 | COc1cc(N[S+](=O)([O-])c2ccc(N)cc2)nc(OC)n1 [Sulphadimethoxine] (top concentration 46.0829 µM) | 100% | 111% | 490 | 585
29 | CN[C@@H]1Cc2cccc3[nH]c(=O)n(c23)C1 [Sumanirole maleate] (top concentration 46.0829 µM) | 84.2% | 91.7% | 508 | 522
30 | CN[S+](=O)([O-])Cc1ccc2[nH]cc(CCN(C)C)c2c1 [Sumatriptan succinate] (top concentration 46.0829 µM) | 79.8% | 97.6% | 558 | 519
31 | CCN(CC)CCNC(=O)c1c(C)[nH]c(/C=C2\C(=O)Nc3ccc(F)cc32)c1C [Sunitinib malate] (top concentration 92.1659 µM) | 1.85% | 3.83% | 382 | 458
32 | CCOCC(O)COc1ccc(NC(=O)CC[S+](C)C)cc1 (stereo unspecified) [Suplatast tosilate] (top concentration 46.0829 µM) | 83.4% | 97.7% | 433 | 478
33 | Cc1ccc(C(=O)Nc2ccc([S+](=O)([O-])O)c3cc([S+](=O)([O-])O)cc([S+](=O)([O-])O)c23)cc1NC(=O)c1cccc(NC(=O)Nc2cccc(C(=O)Nc3cc(C(=O)Nc4ccc([S+](=O)([O-])O)c5cc([S+](=O)([O-])O)cc([S+](=O)([O-])O)c45)ccc3C)c2)c1 [Suramin sodium] (top concentration 46.0829 µM) | 89.1% | 70% | 480 | 474
34 | CNCC(O)c1ccc(O)cc1 (stereo unspecified) [Synephrine] (top concentration 46.0829 µM) | 122% | 110% | 542 | 560
35 | COc1cc(N2CCC(N3CCN(C)CC3)CC2)ccc1Nc1ncc(Cl)c(Nc2ccccc2[S+](=O)([O-])C(C)C)n1 [TAE-684] (top concentration 46.0829 µM) | 2.06% | 28.8% | 221 | 343
36 | CC(C)(O)CC(=O)NCCn1ccc2ncnc(Nc3ccc(Oc4cccc(C(F)(F)F)c4)c(Cl)c3)c21 [TAK-285] (top concentration 46.0829 µM) | 9.61% | 22.4% | 428 | 298
37 | CCc1nc(-c2cccc(C)c2)c(-c2ccnc(NC(=O)c3ccccc3)c2)s1 [TAK-715] (top concentration 46.0829 µM) | 52.5% | 39.3% | 452 | 489
38 | CN1C(=O)/C(=C(NC2=CC=C(I)C=C2F)\C3=C1\N=C/N(C[C@@H](O)CO)C3=O)F [TAK-733] (top concentration 46.0829 µM) | 34.3% | 47.1% | 317 | 407
39 | Cc1cc(OCCC[S+](C)(=O)[O-])cc(C)c1-c1cccc(COc2ccc3c(c2)OC[C@H]3CC(=O)O)c1 [TAK-875] (top concentration 46.0829 µM) | 82.2% | 49% | 545 | 488
40 | CC[S+](=O)([O-])c1cccc(-c2cc(C(=O)NC3CCN(C)CC3)c(C)c3[nH]c4ncc(C)cc4c23)c1 [TAK-901] (top concentration 46.0829 µM) | 44.2% | 49.1% | 383 | 482
41 | O=C(NNC(=O)c1ccc(CN[S+](=O)([O-])c2ccc(F)c(Cl)c2)cc1)c1ccccc1 [TCN-201] (top concentration 46.0829 µM) | 103% | 98.1% | 554 | 495
42 | N#Cc1c(NC(=O)c2cccc3ccccc23)sc2c1CCCC2 [TCS JNK 5a] (top concentration 46.0829 µM) | 62.6% | 37.7% | 476 | 404
43 | Oc1ccc(-c2ccc(-c3cc(Nc4cccc(CNC5CC5)c4)[nH]n3)cc2)c(O)c1 [TCS-2312] (top concentration 46.0829 µM) | 40.3% | 31.8% | 381 | 480
44 | Cc1cnc(Nc2ccc(CN3CCOCC3)cc2)nc1Nc1cccc([S+](=O)([O-])NC(C)(C)C)c1 [TG-46] (top concentration 46.0829 µM) | 2.85% | 5.45% | 392 | 393
